Values quoted from earlier work in patent US5766627A, “Multivescular liposomes with controlled release of encapsulated biologically active substances” (priority 1997, dated 1998).

Assays:
[1] = free amikacin, background statement
[2] = system: strains of gram negative bacteria; conditions: clinical, background statement
[3] = system: strains of gram positive bacteria; conditions: clinical, background statement

Compound: NCC[C@H](O)C(=O)N[C@@H]1C[C@H](N)[C@@H](O[C@H]2O[C@H](CN)[C@@H](O)[C@H](O)[C@H]2O)[C@H](O)[C@H]1O[C@H]1O[C@H](CO)[C@@H](O)[C@H](N)[C@H]1O [amikacin]
- serum half-life [1]: two to three
- activity against gram negative bacteria [2]: clinically significant activity
- activity against gram positive bacteria [3]: clinically significant activity
